# Data: ChEMBL document CHEMBL5346955, “Discovery of HPG1860, a Structurally Novel Nonbile Acid FXR Agonist Currently in Clinical Development for the Treatment of Nonalcoholic Steatohepatitis” (J Med Chem, 2023)
# The source made the active and inactive calls. The calls are words filed in the database; no cut-off is given here.
# Experiments:
# [1] = Metabolic stability in cynomolgus monkey liver microsomes assessed as half life at 1 uM measured upto 120 mins by UPLC/MS/MS analysis; assay type: ADME, Macaca fascicularis, Microsome
# [2] = Drug metabolism in dog assessed as taurine/glycine conjugates in plasma at 50 mg/kg, po; assay type: ADME, organism-based, Canis lupus familiaris; details: in vivo
# [3] = AUC (0 to t) in Beagle dog at 1 mg/kg, iv measured after 5 mins by LC-MS/MS analysis; assay type: ADME, organism-based, Canis lupus familiaris; design: dose 1 mg/kg, time 5 min, route iv; details: in vivo
# [4] = Induction of BSEP gene expression in C57BL/6J mouse liver assessed as fold increase at 3 mg/kg, po measured after 12 hr by RT-qPCR analysis; assay type: functional
# Mus musculus [5] = test: Anti-nonalcoholic steatohepatitis activity against ccl4-induced C57BL/6J mouse model assessed as decrease in ALT level in liver at 1 to 10 mg/kg, po qd treated for 28 days; assay type: functional, organism-based; details: dose 1-10 mg/kg, time 28.0 day
# [6] = Half life in Sprague-Dawley rat at 3 mg/kg, iv measured after 5 mins by LC-MS/MS analysis; assay type: ADME, organism-based; details: in vivo
# [7] = Metabolic stability in dog liver microsomes assessed as half life at 1 uM measured upto 120 mins by UPLC/MS/MS analysis; assay type: ADME, Canis lupus familiaris, Microsome
# Bile acid receptor [8] = molecular target: T1, Bile acid receptor (Homo sapiens, UniProt Q96RI1); test: Agonist activity at human GAL4-FXR-LBD expressed in HEK293T cells assessed as transcriptional activity measured after 16 to 20 hrs by luciferase reporter gene assay; assay type: cell-based
# T1 sequence (Q96RI1 whole entry): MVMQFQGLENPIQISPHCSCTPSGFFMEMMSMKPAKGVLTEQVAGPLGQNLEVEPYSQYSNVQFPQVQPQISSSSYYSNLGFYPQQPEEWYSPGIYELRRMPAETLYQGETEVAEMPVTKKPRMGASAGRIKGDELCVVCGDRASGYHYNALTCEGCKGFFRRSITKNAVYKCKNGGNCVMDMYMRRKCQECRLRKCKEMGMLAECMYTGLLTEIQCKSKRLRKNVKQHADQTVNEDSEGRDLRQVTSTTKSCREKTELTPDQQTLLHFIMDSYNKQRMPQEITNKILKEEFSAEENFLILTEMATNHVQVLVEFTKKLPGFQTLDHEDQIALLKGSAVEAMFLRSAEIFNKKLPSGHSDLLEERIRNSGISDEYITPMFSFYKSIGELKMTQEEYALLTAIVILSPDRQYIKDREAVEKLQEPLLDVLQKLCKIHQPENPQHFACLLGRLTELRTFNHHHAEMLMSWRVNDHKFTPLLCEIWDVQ
# Mus musculus [9] = test: Anti-nonalcoholic steatohepatitis activity against ccl4-induced C57BL/6J mouse model assessed as reduction total cholesterol in serum at 1 to 10 mg/kg, po qd treated for 28 days; assay type: functional, organism-based; details: dose 1-10 mg/kg, time 28.0 day
# Mus musculus [10] = test: Anti-nonalcoholic steatohepatitis activity against ccl4-induced C57BL/6J mouse model assessed as improvement in fibrosis at 1 to 10 mg/kg, po qd treated for 28 days; assay type: functional, organism-based; details: dose 1-10 mg/kg, time 28.0 day
# [11] = Induction of SHP gene expression in C57BL/6J mouse ileum assessed as fold increase at 3 mg/kg, po measured after 4 hr by RT-qPCR analysis relative to control; assay type: functional
# [12] = Tmax in Sprague-Dawley rat at 9 mg/kg, po measured after 12 hrs by LC-MS/MS analysis; assay type: ADME, organism-based; details: in vivo
# Bile acid receptor [13] = molecular target: T1, Bile acid receptor; test: Agonist activity at GST-tagged human FXR-LBD in presence of luorescein-SRC2-2 coactivator peptide by TR-FRET assay
# [14] = Tmax in Balb/c mouse at 5 mg/kg, po measured after 12 hrs by LC-MS/MS analysis; assay type: ADME, organism-based; details: in vivo
# [15] = Solubility of the compound in PBS buffer at pH 7.4; assay type: physicochemical
# Mus musculus [16] = test: Anti-nonalcoholic steatohepatitis activity against ccl4-induced C57BL/6J mouse model assessed as improvement in NAFLD activity score at 1 to 10 mg/kg, po qd treated for 28 days; assay type: functional, organism-based; details: dose 1-10 mg/kg, time 28.0 day
# [17] = Volume of distribution at steady state in Beagle dog at 1 mg/kg, iv measured after 5 mins by LC-MS/MS analysis; assay type: ADME, organism-based, Canis lupus familiaris; details: in vivo, read-out: Vdss
# [18] = Oral bioavailability in Balb/c mouse at 5 mg/kg measured after 12 hrs by LC-MS/MS analysis; assay type: ADME, organism-based; details: in vivo
# [19] = Half life in Balb/c mouse at 1 mg/kg, iv measured after 5 mins by LC-MS/MS analysis; assay type: ADME, organism-based; details: in vivo
# [20] = Volume of distribution at steady state in Sprague-Dawley rat at 3 mg/kg, iv measured after 5 mins by LC-MS/MS analysis; assay type: ADME, organism-based; details: in vivo
# [21] = Metabolic stability in rat liver microsomes assessed as half life at 1 uM measured upto 120 mins by UPLC/MS/MS analysis; assay type: ADME, Microsome
# [22] = Cmax in Balb/c mouse at 5 mg/kg, po measured after 12 hrs by LC-MS/MS analysis; assay type: ADME, organism-based; design: dose 5 mg/kg, time 12 hrs, route po; details: in vivo
# [23] = Clearance in Beagle dog at 1 mg/kg, iv measured after 5 mins by LC-MS/MS analysis; assay type: ADME, organism-based, Canis lupus familiaris; details: in vivo
# [24] = Toxicity in C57BL/6J mouse assessed as change in body weight at 1 to 10 mg/kg, po qd; assay type: organism-based; details: in vivo, dose 1-10 mg/kg
# [25] = AUC (0 to t) in Beagle dog at 3 mg/kg, po measured after 12 hrs by LC-MS/MS analysis; assay type: ADME, organism-based, Canis lupus familiaris; design: dose 3 mg/kg, time 12 hrs, route po; details: in vivo
# [26] = Cmax in Beagle dog at 3 mg/kg, po measured after 12 hrs by LC-MS/MS analysis; assay type: ADME, organism-based, Canis lupus familiaris; design: time 12 hrs, dose 3 mg/kg, route po; details: in vivo
# [27] = Cmax in Sprague-Dawley rat at 9 mg/kg, po measured after 12 hrs by LC-MS/MS analysis; assay type: ADME, organism-based; design: time 12 hrs, dose 9 mg/kg, route po; details: in vivo
# [28] = Half life in Sprague-Dawley rat at 9 mg/kg, po measured after 12 hrs by LC-MS/MS analysis; assay type: ADME, organism-based; details: in vivo
# Mus musculus [29] = test: Anti-nonalcoholic steatohepatitis activity against ccl4-induced C57BL/6J mouse model assessed as decrease in AST level in liver at 1 to 10 mg/kg, po qd treated for 28 days; assay type: functional, organism-based; details: dose 1-10 mg/kg, time 28.0 day
# Mus musculus [30] = test: Anti-nonalcoholic steatohepatitis activity against ccl4-induced C57BL/6J mouse model assessed as improvement in liver inflammation at 1 to 10 mg/kg, po qd treated for 28 days; assay type: functional, organism-based; details: dose 1-10 mg/kg, time 28.0 day
# [31] = Induction of FGF15 gene expression in C57BL/6J mouse ileum assessed as fold increase at 3 mg/kg, po measured after 1 hr by RT-qPCR analysis relative to control; assay type: functional
# [32] = AUC (0 to t) in Balb/c mouse at 1 mg/kg, iv measured after 5 mins by LC-MS/MS analysis; assay type: ADME, organism-based; design: time 5 min, dose 1 mg/kg, route iv; details: in vivo
# [33] = AUC (0 to t) in Balb/c mouse at 5 mg/kg, po measured after 12 hrs by LC-MS/MS analysis; assay type: ADME, organism-based; design: dose 5 mg/kg, time 12 hrs, route po; details: in vivo
# [34] = Half life in Balb/c mouse at 5 mg/kg, po measured after 12 hrs by LC-MS/MS analysis; assay type: ADME, organism-based; details: in vivo
# [35] = Volume of distribution at steady state in Balb/c mouse at 1 mg/kg, iv measured after 5 mins by LC-MS/MS analysis; assay type: ADME, organism-based; details: in vivo, read-out: Vdss
# [36] = Oral bioavailability in Sprague-Dawley rat at 9 mg/kg measured after 12 hrs by LC-MS/MS analysis; assay type: ADME, organism-based; details: in vivo
# [37] = Induction of SHP gene expression in C57BL/6J mouse liver assessed as fold increase at 3 mg/kg, po measured after 1 hr by RT-qPCR analysis; assay type: functional
# [38] = Half life in Beagle dog at 1 mg/kg, iv measured after 5 mins by LC-MS/MS analysis; assay type: ADME, organism-based, Canis lupus familiaris; details: in vivo
# [39] = Metabolic stability in human liver microsomes assessed as half life at 1 uM measured upto 120 mins by UPLC/MS/MS analysis; assay type: ADME, Microsome
# [40] = AUC (0 to t) in Sprague-Dawley rat at 9 mg/kg, po measured after 12 hrs by LC-MS/MS analysis; assay type: ADME, organism-based; design: dose 9 mg/kg, time 12 hrs, route po; details: in vivo
# [41] = Clearance in Balb/c mouse at 1 mg/kg, iv measured after 5 mins by LC-MS/MS analysis; assay type: ADME, organism-based; details: in vivo
# [42] = Induction of FGF15 gene expression in C57BL/6J mouse ileum assessed as fold increase at 3 mg/kg, po measured after 4 hr by RT-qPCR analysis relative to control; assay type: functional
# [43] = Tmax in Beagle dog at 3 mg/kg, po measured after 12 hrs by LC-MS/MS analysis; assay type: ADME, organism-based, Canis lupus familiaris; details: in vivo
# [44] = Half life in Beagle dog at 3 mg/kg, po measured after 12 hrs by LC-MS/MS analysis; assay type: ADME, organism-based, Canis lupus familiaris; details: in vivo
# [45] = AUC (0 to t) in Sprague-Dawley rat at 3 mg/kg, iv measured after 5 mins by LC-MS/MS analysis; assay type: ADME, organism-based; design: time 5 min, dose 3 mg/kg, route iv; details: in vivo
# Mus musculus [46] = test: Anti-nonalcoholic steatohepatitis activity against ccl4-induced C57BL/6J mouse model assessed as clearance of liver steatosis at 10 mg/kg, po qd treated for 28 days; assay type: functional; details: time 28 day
compound,measurement,setting,value
COc1cc(C(=O)O)cc2sc(N3CCN(Cc4c(-c5c(Cl)cccc5Cl)noc4C4CC4)C[C@H]3C)nc12,half-life at 1 µM,[1],2.57 h
same,Drug metabolism,[2],Metabolite_Notdetected
same,AUC(0-t) at 5 min,[3],4590 ng·h/mL
same,fold change (FC),[4],4
same,Activity,Mus musculus [5],Active
same,t1/2,[6],1.44 h
same,half-life at 1 µM,[7],3.95 h
same,EC50,Bile acid receptor [8],18 nM
same,Activity,Mus musculus [9],Active
same,Activity,Mus musculus [10],Active
same,fold change (FC),[11],~30
same,Tmax,[12],0.5 h
same,EC50,Bile acid receptor [13],5 nM
same,Tmax,[14],0.25 h
same,solubility,[15],284 µM
same,Activity,Mus musculus [16],Active
same,Vd,[17],0.823 L/kg
same,bioavailability,[18],77.2%
same,half-life,[19],1.6 h
same,Vdss,[20],29.3 L/kg
same,half-life at 1 µM,[21],1.93 h
same,Cmax,[22],3610 ng/mL
same,clearance,[23],3.63 mL/min/kg
same,Activity,[24],Non-Toxic
same,AUC(0-t) at 12 h,[25],8270 ng·h/mL
same,Cmax,[26],1710 ng/mL
same,Cmax,[27],1950 ng/mL
same,half-life,[28],2.1 h
same,Activity,Mus musculus [29],Active
same,Activity,Mus musculus [30],Active
same,fold change (FC),[31],7
same,AUC(0-t) at 5 min,[32],1010 ng·h/mL
same,AUC(0-t) at 12 h,[33],3880 ng·h/mL
same,half-life,[34],1.52 h
same,Vd,[35],0.53 L/kg
same,bioavailability,[36],52.1%
same,fold change (FC),[37],12
same,half-life,[38],4.07 h
same,half-life at 1 µM,[39],7.45 h
same,AUC(0-t) at 12 h,[40],4120 ng·h/mL
same,clearance,[41],16.5 mL/min/kg
same,fold change (FC),[42],5
same,Tmax,[43],1 h
same,half-life,[44],9.9 h
same,AUC(0-t) at 5 min,[45],2610 ng·h/mL
same,Activity,Mus musculus [46],100%
COc1cc(C(=O)O)cc2sc(N3CCN(Cc4c(-c5c(Cl)cccc5Cl)noc4C(C)C)CC3(C)C)nc12,EC50,Bile acid receptor [8],127 nM
same,EC50,Bile acid receptor [13],37 nM
